Earlier results as cited in patent US20100151107A1, “EXTRACTION METHOD FOR THE CLASSIFIED EXTRACTION AND SEPARATION OF VEGETABLE COMPONENT MATERIALS, AND THE APPLICATION THEREOF” (priority 2006, published 2010).

What was measured:
healthy cells = conditions: all hitherto described in-vitro experiments
[1] = system: isolated mouse mammary gland cells; conditions: MMOC-test; versus resveratrol isolated from red vine
[2] = system: 60 different human tumour-cell lines; conditions: 60 different human tumour-cell lines (leukaemia, lung cancer, large intestine, melanoma, breast cancer)
[3] = in-vitro; against osteoporosis, arteriosclerosis, diseases of the coronary vessels, heart attack and stroke
[4] = rats; dose 1.000 mg xanthohumol per kg body weight

With COc1cc(O)c(CC=C(C)C)c(O)c1C(=O)/C=C/c1ccc(O)cc1 [Xanthohumol, xanthohumol] as the molecule, how does the “cytotoxic effect against healthy cells” value (healthy cells) read?
Its value is “no cytotoxic effect”.

What about the “effectiveness relative to resveratrol” value [1] of the same molecule?
The value was “more than 200 fold”.

And the “growth inhibiting and cytotoxic effect” value [2]?
Its value is “growth inhibiting and cytotoxic effect”.

And the preventive effect [3]?
Its preventive effect is “preventive effect”.

And the toxic effect [4]?
Its toxic effect is “no toxic effect”.
